Columns and labels:
[1] = molecular target: T1, EGFR (Homo sapiens, UniProt P00533); experiment: EGFR substrate phosphorylation assay (HTRF); type: biochemical; settings: Method (A): Enzyme Mix incubated with compound at 20° C. for 1 hr, reaction started by adding Substrate Mix
T1 construct: made in house; host or cells: baculovirus expression system
Method in brief: (§1)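 Baculovirus-expressed kinase (0.8 nM EGFR or 10 nM ErbB2 in enzyme mix) with Peptide C 0.8 μM and ATP 20 μM (substrate-mix levels), MOPS pH 7.5, MnCl2; 90 min, 20 °C, HTRF anti-phosphotyrosine. Method A adds 1 h enzyme–compound preincubation; B none. pIC50, final compound 0.00027–47.6 μM.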

[2] = molecular target: T2, ErbB2 (Homo sapiens, UniProt P04626); experiment: ErbB-2 substrate phosphorylation assay (HTRF); type: biochemical; settings: Method (A): Enzyme Mix incubated with compound at 20° C. for 1 hr, reaction started by adding Substrate Mix
T2 construct: made in house; host or cells: baculovirus expression system
T2 sequence (P04626 23-1255): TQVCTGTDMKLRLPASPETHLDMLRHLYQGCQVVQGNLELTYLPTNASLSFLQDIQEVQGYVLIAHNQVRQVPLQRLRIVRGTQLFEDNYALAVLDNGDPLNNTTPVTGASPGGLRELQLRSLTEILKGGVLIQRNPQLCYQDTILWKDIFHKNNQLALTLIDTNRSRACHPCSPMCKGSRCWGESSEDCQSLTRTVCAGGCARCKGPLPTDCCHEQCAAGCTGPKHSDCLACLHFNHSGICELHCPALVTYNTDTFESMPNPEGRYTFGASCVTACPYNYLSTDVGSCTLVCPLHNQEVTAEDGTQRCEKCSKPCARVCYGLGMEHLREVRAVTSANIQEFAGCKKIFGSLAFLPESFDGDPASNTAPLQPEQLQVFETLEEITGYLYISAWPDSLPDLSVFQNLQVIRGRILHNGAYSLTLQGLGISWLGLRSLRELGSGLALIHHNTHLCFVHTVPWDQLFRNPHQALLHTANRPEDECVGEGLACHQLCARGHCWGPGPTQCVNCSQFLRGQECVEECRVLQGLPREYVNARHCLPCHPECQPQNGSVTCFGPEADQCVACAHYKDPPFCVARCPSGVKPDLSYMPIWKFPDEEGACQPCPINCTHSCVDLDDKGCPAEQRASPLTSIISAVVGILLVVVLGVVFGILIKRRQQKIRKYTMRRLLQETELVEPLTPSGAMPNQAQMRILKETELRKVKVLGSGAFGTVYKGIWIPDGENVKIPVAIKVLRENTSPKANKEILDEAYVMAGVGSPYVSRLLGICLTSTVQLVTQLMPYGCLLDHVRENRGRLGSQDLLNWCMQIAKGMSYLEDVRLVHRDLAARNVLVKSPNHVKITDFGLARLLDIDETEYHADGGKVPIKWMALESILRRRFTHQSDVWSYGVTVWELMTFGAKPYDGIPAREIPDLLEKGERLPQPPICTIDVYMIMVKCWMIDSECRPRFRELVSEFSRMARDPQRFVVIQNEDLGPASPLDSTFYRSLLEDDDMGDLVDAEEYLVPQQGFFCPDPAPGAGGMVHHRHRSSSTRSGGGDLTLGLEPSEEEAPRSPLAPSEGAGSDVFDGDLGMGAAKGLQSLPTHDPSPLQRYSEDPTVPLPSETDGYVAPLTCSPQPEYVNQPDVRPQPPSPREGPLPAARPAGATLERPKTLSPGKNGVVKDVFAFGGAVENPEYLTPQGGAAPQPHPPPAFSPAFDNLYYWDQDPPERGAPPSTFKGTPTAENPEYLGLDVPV
Method in brief: as §1

T1 sequence (P00533 25-1210): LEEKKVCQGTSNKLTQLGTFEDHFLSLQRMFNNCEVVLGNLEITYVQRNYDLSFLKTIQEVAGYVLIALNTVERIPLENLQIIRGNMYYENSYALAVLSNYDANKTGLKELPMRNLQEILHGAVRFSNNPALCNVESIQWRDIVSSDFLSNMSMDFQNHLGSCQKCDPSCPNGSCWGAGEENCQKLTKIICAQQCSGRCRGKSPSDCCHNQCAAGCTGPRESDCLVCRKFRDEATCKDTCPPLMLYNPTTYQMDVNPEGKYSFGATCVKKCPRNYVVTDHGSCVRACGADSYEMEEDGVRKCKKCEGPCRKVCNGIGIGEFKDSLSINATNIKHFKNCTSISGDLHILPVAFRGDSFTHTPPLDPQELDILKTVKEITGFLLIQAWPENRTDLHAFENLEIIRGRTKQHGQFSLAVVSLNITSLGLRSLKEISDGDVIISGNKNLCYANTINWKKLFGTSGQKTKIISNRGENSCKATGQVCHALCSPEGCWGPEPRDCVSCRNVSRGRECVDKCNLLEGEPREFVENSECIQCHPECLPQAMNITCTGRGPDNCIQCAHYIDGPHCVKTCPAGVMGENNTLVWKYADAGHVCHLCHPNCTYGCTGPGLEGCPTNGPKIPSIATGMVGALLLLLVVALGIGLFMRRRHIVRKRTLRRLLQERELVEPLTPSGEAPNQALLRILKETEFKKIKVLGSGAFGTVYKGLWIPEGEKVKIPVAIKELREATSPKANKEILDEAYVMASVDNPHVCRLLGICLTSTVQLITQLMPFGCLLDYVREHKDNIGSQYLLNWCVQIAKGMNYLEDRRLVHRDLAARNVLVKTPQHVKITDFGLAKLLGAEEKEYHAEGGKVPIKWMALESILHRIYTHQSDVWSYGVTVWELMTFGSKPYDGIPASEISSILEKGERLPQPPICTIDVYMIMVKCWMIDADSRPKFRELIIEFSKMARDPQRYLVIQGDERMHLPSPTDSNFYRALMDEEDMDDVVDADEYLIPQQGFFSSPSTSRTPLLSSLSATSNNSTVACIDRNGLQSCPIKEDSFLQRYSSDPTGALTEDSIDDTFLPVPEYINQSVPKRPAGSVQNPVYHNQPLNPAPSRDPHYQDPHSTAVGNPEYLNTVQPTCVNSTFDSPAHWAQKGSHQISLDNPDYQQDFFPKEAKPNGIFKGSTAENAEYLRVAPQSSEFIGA

| IC50 [1] | IC50 [2] | Structure (SMILES) |
| --- | --- | --- |
| < 100 nM | < 100 nM | Nc1nc(-c2cccc(C(=O)Nc3c(F)cccc3F)c2)c(-c2ccnc(Nc3cccc(CN4CCCC4)c3)n2)s1 [Example 77, 3-[2-Amino-5-(2-{[3-(1-pyrrolidinylmethyl)phenyl]amino}-4-pyrimidinyl)-1,3-thiazol-4-yl]-N-(2,6-difluorophenyl)benzamide] |
| < 100 nM | < 100 nM | CCc1nc(-c2cccc(NC(=O)c3c(F)cccc3F)c2)c(-c2ccnc(Nc3cccc(CN4CCCC4)c3)n2)s1 [Example 115, N-{3-[2-Ethyl-5-(2-{[3-(1-pyrrolidinylmethyl)phenyl]amino}-4-pyrimidinyl)-1,3-thiazol-4-yl]phenyl}-2,6-difluorobenzamide] |
| < 100 nM | < 100 nM | COc1cc(Nc2nccc(-c3sc(N)nc3-c3cccc(NC(=O)c4c(F)cccc4F)c3)n2)cc(OC)c1OC [Example 16, N-[3-(2-Amino-5-{2-[(3,4,5-trimethoxyphenyl)amino]pyrimidiN-4-yl}-1,3-thiazol-4-yl)phenyl]-2,6-difluorobenzamide] |
| 100 to 1000 nM | > 1000 nM | Cc1cc(-c2sc(N)nc2-c2cccc(NC(=O)c3c(F)cccc3F)c2)nc(Nc2cccc(F)c2)n1 [Example 48, N-[3-(2-Amino-5-{2-[(3-fluorophenyl)amino]-6-methyl-4-pyrimidinyl}-1,3-thiazol-4-yl)phenyl]-2,6-difluorobenzamide] |
| < 100 nM | < 100 nM | Cc1nc(-c2cccc(NC(=O)c3cc(F)ccc3F)c2)c(-c2ccnc(Nc3ccc(OCCN(C)C)c(Cl)c3)n2)o1 [Example 142] |
| < 100 nM | < 100 nM | Cc1nc(-c2cccc(NC(=O)c3c(F)cccc3F)c2)c(-c2ccnc(Nc3ccc(OC4CCN(C(=O)OCc5ccccc5)CC4)c(F)c3)n2)s1 [Example 106] |
| < 100 nM | < 100 nM | COc1ccc(Nc2nccc(-c3sc(N)nc3-c3cccc(NC(=O)c4c(F)cccc4F)c3)n2)cc1N1CCNCC1 [Example 18, N-[3-(2-Amino-5-{2-[(4-methoxy-3-piperaziN-1-ylphenyl)amino]pyrimidiN-4-yl}-1,3-thiazol-4-yl)phenyl]-2,6-difluorobenzamide] |
| < 100 nM | < 100 nM | Cc1nc(-c2cccc(NC(=O)c3c(F)cccc3F)c2)c(-c2ccnc(Nc3ccc(OCCN(C)C)c(Cl)c3)n2)s1 [Example 103, N-[3-(5-{2-[(3-Chloro-4-{[2-(dimethylamino)ethyl]oxy}phenyl)amino]-4-pyrimidinyl}-2-methyl-1,3-thiazol-4-yl)phenyl]-2,6-difluorobenzamide] |
| < 100 nM | < 100 nM | CCNc1nc(-c2cccc(NC(=O)C3CC3)c2)c(-c2ccnc(Nc3ccc(OCCN4CCCC4)c(Cl)c3)n2)s1 [Example 63, N-{3-[5-{2-[(3-Chloro-4-{[2-(1-pyrrolidinyl)ethyl]oxy}phenyl)amino]-4-pyrimidinyl}-2-(ethylamino)-1,3-thiazol-4-yl]phenyl}cyclopropanecarboxamide] |
